Experimental data from patent publication US20240279201A1, “DUAL WNT SIGNALING PATHWAY INHIBITORS AND AMPK ACTIVATORS FOR TREATMENTS OF DISEASE” (priority 2021, published 2024).

Columns and labels:
[1] = Cytotoxicity (CC50) during the luciferase gene reporter assay; type: cell-based; conditions: human, HEK293 cells; short treatment duration of the luciferase gene reporter assay
[2] = system: Wnt/β-Catenin signaling pathway; assay: Wnt signaling luciferase (TOPflash) reporter gene assay; type: cell-based; conditions: for IC50: luciferase reporter gene assay, mean of three independent experiments, read-out: IC50 (nM) to inhibit the Wnt signaling activity
Source text: A dual-luciferase gene reporter assay was used to test inhibitory activities of new compounds on Wnt signaling. […] Therefore, the effects of new compounds on AMPK was examined. […]

Row | IC50 [2] [nM] | inhibitory activity in the reporter assay ([2]; biotinylated analogs) | SMILES | CC50 [1] [nM] | inhibition at 1 µM [2] [%]
1 | > 1000 |  | Cc1ccccc1-n1nnc(C(=O)Nc2ncc(-c3ccccc3)s2)c1C [YA4085, 5-Methyl-N-(5-phenylthiazol-2-yl)-1-(o-tolyl)-1H-1,2,3-triazole-4-carboxamide] | > 92000 | 37
2 | > 1000 |  | Cc1ccccc1-n1nnc(C(=O)Nc2nc3ccccc3o2)c1C [YA4067] | > 92000 | 14
3 | 16 |  | Cc1ccccc1-n1nnc(C(=O)Nc2nc3cc(F)ccc3s2)c1C [YA4101, N-(5-Fluorobenzo[d]thiazol-2-yl)-5-methyl-1-(o-tolyl)-1H-1,2,3-triazole-4-carboxamide] | > 92000 | 
4 | 0.8 |  | Cc1c(C(=O)Nc2nc3ccccc3s2)nnn1-c1ccccc1Cl [YA6027, N-(Benzo[d]thiazol-2-yl)-1-(2-chlorophenyl)-5-methyl-1H-1,2,3-triazole-4-carboxamide] | > 92000 | 98
5 | 1.8 |  | Cc1c(C(=O)Nc2nc3ccccc3s2)nnn1-c1ccccc1Br [YA4003, N-(Benzo[d]thiazol-2-yl)-1-(2-bromophenyl)-5-methyl-1H-1,2,3-triazole-4-carboxamide] | > 92000 | 100
6 | > 1000 |  | Cc1ccc(-c2csc(NC(=O)c3nnn(-c4ccccc4C)c3C)n2)cc1 [YA4141] | > 92000 | 

The remaining lines, values behind:

Row | SMILES | IC50 [2] [nM] | inhibitory activity in the reporter assay ([2]; biotinylated analogs) | CC50 [1] [nM] | inhibition at 1 µM [2] [%]
7 | Cc1c(C(=O)Nc2cnc3ccccc3n2)nnn1-c1ccccc1F [YA6138, 1-(2-Fluorophenyl)-5-methyl-N-(quinoxalin-2-yl)-1H-1,2,3-triazole-4-carboxamide] | 0.15 |  | > 92000 | 
8 | Cc1ccccc1-n1nnc(C(=O)Nc2nc3ccc([N+](=O)[O-])cc3s2)c1C [YA4057, 5-Methyl-N-(6-nitrobenzo[d]thiazol-2-yl)-1-(o-tolyl)-1H-1,2,3-triazole-4-carboxamide] | > 1000 |  | > 92000 | 
9 | O=C(Nc1nc2ccc(F)cc2s1)c1nnn(-c2ccccc2F)c1C(F)(F)F [YA6175, N-(6-Fluorobenzo[d]thiazol-2-yl)-1-(2-fluorophenyl)-5-(trifluoromethyl)-1H-1,2,3-triazole-4-carboxamide] | 17 |  | > 92000 | 85
10 | Cc1ccccc1-n1nnc(C(=O)Nc2cc(CN3CCN(C(=O)OC(C)(C)C)CC3)c3ccccc3n2)c1C [YA6159, tert-Butyl 4-((2-(5-methyl-1-(o-tolyl)-1H-1,2,3-triazole-4-carboxamido)quinolin-4-yl)methyl)piperazine-1-carboxylate] | > 1000 |  | > 92000 | 
11 | O=C(Nc1ccc2ccccc2n1)c1nnn(-c2ccccc2Cl)n1 [YA70033, 2-(2-Chlorophenyl)-N-(quinolin-2-yl)-2H-tetrazole-5-carboxamide] | > 1000 |  | > 92000 | 
12 | Cc1c(C(=O)Nc2cnc3ccccc3n2)nnn1-c1ccccc1Cl [YA6139, 1-(2-Chlorophenyl)-5-methyl-N-(quinoxalin-2-yl)-1H-1,2,3-triazole-4-carboxamide] | 0.11 |  | > 92000 | 
13 | Cc1ccccc1-n1nnc(C(=O)Nc2ccc3ccccc3n2)n1 [YA70031, N-(Quinolin-2-yl)-2-(o-tolyl)-2H-tetrazole-5-carboxamide] | > 1000 |  | > 92000 | 
14 | Cc1ccccc1-n1nnc(C(=O)Nc2ccc3cc(CN4CCN(C(=O)CCOCCOCCOCCOCCNC(=O)CCCC[C@@H]5SC[C@@H]6NC(=O)N[C@@H]65)CC4)ccc3n2)c1C [YA6023] |  | maintained inhibitory activities |  | 
15 | O=C(Nc1nc2ccccc2s1)c1cnn(-c2ccccc2)c1 [YA6149, N-(Benzo[d]thiazol-2-yl)-1-phenyl-1H-pyrazole-4-carboxamide] |  |  | > 92000 | 
16 | Cc1cc(/C=C/c2ccc3cc(N(C)C)ccc3[n+]2C)c(C)n1-c1ccccc1 [Pyrvinium, reference compound] | 599 |  |  | 69
17 | Cc1c(C(=O)Nc2nc3ccccc3s2)nnn1-c1cccc(Cl)c1 [YA4055, N-(Benzo[d]thiazol-2-yl)-1-(3-chlorophenyl)-5-methyl-1H-1,2,3-triazole-4-carboxamide] |  |  | > 92000 | 
